According to PMC3821527 (Bioorganic & medicinal chemistry letters, 2013):

Columns and labels:
AAC(6′)-Ib [1] = target: T1, AAC(6′)-Ib (Klebsiella pneumoniae, UniProt P19650); assay: AAC; type: biochemical; details: for inhibition of the acetylation of kanamycin A: 100 μM compound, 18 μM kanamycin A, 50 μM acetyl CoA, 10% DMSO
AAC(6′)-Ib [2] = target: T1, AAC(6′)-Ib; assay: AAC; type: biochemical; details: Lineweaver-Burk plots; for mode of inhibition with respect to acetyl CoA: variable acetyl CoA; for mode of inhibition with respect to kanamycin A: variable kanamycin A

T1 sequence (P19650 whole entry): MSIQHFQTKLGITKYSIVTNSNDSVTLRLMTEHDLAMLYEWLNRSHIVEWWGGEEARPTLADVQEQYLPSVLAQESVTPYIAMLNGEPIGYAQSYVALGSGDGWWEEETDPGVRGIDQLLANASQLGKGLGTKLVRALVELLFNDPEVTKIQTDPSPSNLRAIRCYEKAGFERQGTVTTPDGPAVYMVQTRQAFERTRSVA

| SMILES | inhibitory activity in the presence of 0.01% Triton X-100 (AAC(6′)-Ib [1]; 0.01% Triton X-100, to rule out non-specific protein aggregation) | inhibition of the acetylation of kanamycin A (AAC(6′)-Ib [1]) | mode of inhibition with respect to acetyl CoA (AAC(6′)-Ib [2]) | mode of inhibition with respect to kanamycin A (AAC(6′)-Ib [2]) |
| --- | --- | --- | --- | --- |
| O=C1/C(=C/c2ccco2)C(=O)N(c2ccc(Br)cc2)C(=S)N1c1ccccc1 [Compound 5309471] | did not show the same level of inhibitory activity |  |  |  |
| O=C1C(=Cc2ccco2)C(=O)N(c2ccccc2)C(=O)N1c1ccccc1 [Compound 2d] |  | lack of activity |  |  |
| Cc1cccc(N2C(=O)/C(=C/c3ccccc3OCc3ccc(C(=O)O)cc3)C(=O)NC2=S)c1 [Compound 1, 4-[(2-{[1-(3-methylphenyl)-4,6-dioxo-2-thioxotetrahydro-5(2H)-pyrimidinylidene]methyl}phenoxy)methyl]benzoic acid] |  | modest inhibition | noncompetitive | competitive |
| O=C(O)c1ccccc1-c1ccc(C=C2C(=O)N(c3ccccc3)C(=S)N(c3ccccc3)C2=O)o1 [Compound 2, 2-{5-[(4,6-dioxo-1,3-diphenyl-2-thioxotetrahydro-5(2H)-pyrimidinylidene)methyl]-2-furyl}benzoic acid] |  | significant inhibition | noncompetitive | competitive |
| O=C1NC(=O)N(c2ccc(Cl)cc2)C(=O)/C1=C\c1ccco1 [Compound 2b, 1-(4-chlorophenyl)-5-(2-furylmethylene)-2,4,6(1H,3H,5H)-pyrimidinetrione] |  | weaker inhibition |  |  |
| O=C1C(=Cc2ccco2)C(=O)N(c2ccccc2)C(=S)N1c1ccccc1 [Compound 2c] |  | lack of activity |  |  |
